Legend:
Rattus norvegicus [1] = test: Distribution of the radioiodinated compound expressed as percent dose per organ, in thyroid of unfasted rats after 5 mins of intravenous administration (11.5 uCi/animal); value ranges from 0.08-0.17 % dose/g; type: ADME, organism-based, Thyroid gland; settings: in vivo
Rattus norvegicus [2] = test: Distribution of the radioiodinated compound expressed as percent dose per gram, in brain of unfasted rats after 30 mins of intravenous administration (11.5 uCi/animal); value ranges from 0.16-1.76 % dose/g; type: ADME, organism-based; settings: in vivo, 0.5 h
Rattus norvegicus [3] = test: Distribution of the radioiodinated compound expressed as percent dose per gram, in liver of unfasted rats after 30 mins of intravenous administration (11.5 uCi/animal); value ranges from 0.08-0.90 % dose/g; type: ADME, organism-based; settings: in vivo, 0.5 h
Rattus norvegicus [4] = organism: Rattus norvegicus; test: Specific activity of the radioiodinated compound was determined in rats; type: functional
Rattus norvegicus [5] = test: Distribution of the radioiodinated compound expressed as percent dose per gram, in brain of unfasted rats after 5 mins of intravenous administration (11.5 uCi/animal); value ranges from 2.57-3.59 % dose/g; type: ADME, organism-based; settings: in vivo
Rattus norvegicus [6] = test: Distribution of the radioiodinated compound expressed as percent dose per gram, in blood of unfasted rats after 30 mins of intravenous administration (11.5 uCi/animal); value ranges from 0.06-0.63 % dose/g; type: ADME, organism-based; settings: in vivo, 0.5 h
Rattus norvegicus [7] = test: Distribution of the radioiodinated compound expressed as percent dose per organ, in thyroid of unfasted rats after 60 mins of intravenous administration (11.5 uCi/animal); value ranges from 0.99-1.40 % dose/g; type: ADME, organism-based, Thyroid gland; settings: in vivo, 1 h
Rattus norvegicus [8] = test: Distribution of the radioiodinated compound expressed as percent dose per gram, in kidney of unfasted rats after 60 mins of intravenous administration (11.5 uCi/animal); value ranges from 0.74-0.85 % dose/g; type: ADME, organism-based; settings: in vivo, 1 h
Rattus norvegicus [9] = test: Distribution of the radioiodinated compound expressed as percent dose per gram, in brain of unfasted rats after 60 mins of intravenous administration (11.5 uCi/animal); value ranges from 0.81-1.08 % dose/g; type: ADME, organism-based; settings: in vivo, 1 h
Rattus norvegicus [10] = test: Distribution of the radioiodinated compound expressed as percent dose per gram, in heart of unfasted rats after 60 mins of intravenous administration (11.5 uCi/animal); value ranges from 0.33-0.42 % dose/g; type: ADME, organism-based; settings: in vivo, 1 h
Rattus norvegicus [11] = test: Distribution of the radioiodinated compound expressed as percent dose per gram, in thyroid of unfasted rats after 60 mins of intravenous administration (11.5 uCi/animal); value ranges from 31.90-39.98 % dose/g; type: ADME, organism-based, Thyroid gland; settings: in vivo, 1 h
Rattus norvegicus [12] = test: Distribution of the radioiodinated compound expressed as percent dose per gram, in lungs of unfasted rats after 30 mins of intravenous administration (11.5 uCi/animal); value ranges from 0.51-3.71 % dose/g; type: ADME, organism-based, Lung; settings: in vivo, 0.5 h
Rattus norvegicus [13] = test: Distribution of the radioiodinated compound expressed as percent dose per organ, in thyroid of unfasted rats after 30 mins of intravenous administration (11.5 uCi/animal); value ranges from 0.05-0.38 % dose/g; type: ADME, organism-based, Thyroid gland; settings: in vivo, 0.5 h
Rattus norvegicus [14] = test: Distribution of the radioiodinated compound expressed as percent dose per gram, in lungs of unfasted rats after 5 mins of intravenous administration (11.5 uCi/animal); value ranges from 5.92-8.51% dose/g; type: ADME, organism-based, Lung; settings: in vivo
Rattus norvegicus [15] = test: Distribution of the radioiodinated compound expressed as percent dose per gram, in liver of unfasted rats after 60 mins of intravenous administration (11.5 uCi/animal); value ranges from 0.61-0.81 % dose/g; type: ADME, organism-based; settings: in vivo, 1 h
Rattus norvegicus [16] = test: Distribution of the radioiodinated compound expressed as percent dose per gram, in liver of unfasted rats after 5 mins of intravenous administration (11.5 uCi/animal); value ranges from 1.64-2.38 % dose/g; type: ADME, organism-based; settings: in vivo
Rattus norvegicus [17] = test: Distribution of the radioiodinated compound expressed as percent dose per gram, in blood of unfasted rats after 60 mins of intravenous administration (11.5 uCi/animal); value ranges from % dose/g; type: ADME, organism-based; settings: in vivo, 1 h
Rattus norvegicus [18] = test: Distribution of the radioiodinated compound expressed as percent dose per gram, in heart of unfasted rats after 5 mins of intravenous administration (11.5 uCi/animal); value ranges from 0.85-1.13 % dose/g; type: ADME, organism-based; settings: in vivo
Rattus norvegicus [19] = test: Distribution of the radioiodinated compound expressed as percent dose per gram, in heart of unfasted rats after 30 mins of intravenous administration (11.5 uCi/animal); value ranges from 0.06-0.53 % dose/g; type: ADME, organism-based; settings: in vivo, 0.5 h
Rattus norvegicus [20] = test: Distribution of the radioiodinated compound expressed as percent dose per gram, in thyroid of unfasted rats after 5 mins of intravenous administration (11.5 uCi/animal); value ranges from 7.87-16.51 % dose/g; type: ADME, organism-based, Thyroid gland; settings: in vivo
Rattus norvegicus [21] = test: Distribution of the radioiodinated compound expressed as percent dose per gram, in thyroid of unfasted rats after 30 mins of intravenous administration (11.5 uCi/animal); value ranges from 5.03-36.88 % dose/g; type: ADME, organism-based, Thyroid gland; settings: in vivo, 0.5 h
Rattus norvegicus [22] = test: Distribution of the radioiodinated compound expressed as percent dose per gram, in kidney of unfasted rats after 5 mins of intravenous administration (11.5 uCi/animal); value ranges from 2.12-3.14 % dose/g; type: ADME, organism-based; settings: in vivo
Rattus norvegicus [23] = test: Distribution of the radioiodinated compound expressed as percent dose per gram, in blood of unfasted rats after 5 mins of intravenous administration (11.5 uCi/animal); value ranges from 0.28-0.37% dose/g; type: ADME, organism-based; settings: in vivo
Rattus norvegicus [24] = test: Distribution of the radioiodinated compound expressed as percent dose per gram, in kidney of unfasted rats after 30 mins of intravenous administration (11.5 uCi/animal); value ranges from 0.15-1.43 % dose/g; type: ADME, organism-based; settings: in vivo, 0.5 h
Rattus norvegicus [25] = test: Distribution of the radioiodinated compound expressed as percent dose per gram, in lungs of unfasted rats after 60 mins of intravenous administration (11.5 uCi/animal); value ranges from 1.87-2.12 % dose/g; type: ADME, organism-based, Lung; settings: in vivo, 1 h

## CC(C)NC(C)Cc1ccc(I)s1 (racemic)
Rattus norvegicus [1]
  Distribution: 0.13 % dose organ-1
Rattus norvegicus [2]
  Distribution: 1.37 % dose g-1
Rattus norvegicus [3]
  Distribution: 0.71 % dose g-1
Rattus norvegicus [4]
  Activity: 40 mCi animal-1
Rattus norvegicus [5]
  Distribution: 3.18 % dose g-1
Rattus norvegicus [6]
  Distribution: 0.49 % dose g-1
Rattus norvegicus [7]
  Distribution: 1.24 % dose organ-1
Rattus norvegicus [8]
  Distribution: 0.79 % dose g-1
Rattus norvegicus [9]
  Distribution: 0.95 % dose g-1
Rattus norvegicus [10]
  Distribution: 0.37 % dose g-1
Rattus norvegicus [11]
  Distribution: 36.45 % dose g-1
Rattus norvegicus [12]
  Distribution: 2.76 % dose g-1
Rattus norvegicus [13]
  Distribution: 0.28 % dose organ-1
Rattus norvegicus [14]
  Distribution: 7.01 % dose g-1
Rattus norvegicus [15]
  Distribution: 0.07 % dose g-1
Rattus norvegicus [16]
  Distribution: 2.06 % dose g-1
Rattus norvegicus [17]
  Distribution: 0.6 % dose g-1
Rattus norvegicus [18]
  Distribution: 0.94 % dose g-1
Rattus norvegicus [19]
  Distribution: 0.42 % dose g-1
Rattus norvegicus [20]
  Distribution: 12.51 % dose g-1
Rattus norvegicus [21]
  Distribution: 26.26 % dose g-1
Rattus norvegicus [22]
  Distribution: 2.72 % dose g-1
Rattus norvegicus [23]
  Distribution: 0.31 % dose g-1
Rattus norvegicus [24]
  Distribution: 1.04 % dose g-1
Rattus norvegicus [25]
  Distribution: 1.97 % dose g-1

— ChEMBL document CHEMBL1126144, “Synthesis and evaluation of radioiodinated 2-(2(RS)-aminopropyl)-5- iodothiophenes as brain imaging agents” (J Med Chem, 1992)
